Where two headings read alike, the source gives them in different places.
Tests used:
[1] = 5 mg/mL
Description: In this study, the effects of various pharmaceutical excipients on the stability of AMG 416 in liquid formulation were determined. A 10 mg/mL solution of AMG 416 and stock solutions of mannitol, glycine, arginine, NaCl and Na2SO4 at 2× isotonic concentrations were prepared. The pH of the AMG 416 solution and the five excipient solutions and deionized water separately were adjusted to pH 3.5 using HCl/NaOH. 500 μL aliquots of each of the six solutions were added to glass vials and 500 μL of the AMG 416 solution was added to the same vials and mixed well. This was performed in triplicate to provided eighteen sample vials, each containing 5 mg/mL AMG 416 and an isotonic concentration of the excipient (or deionized water). This was repeated with a set of solutions adjusted to pH 4.5, providing a further eighteen sample vials. The samples were incubated and removed for HPLC analysis at relevant time points.

[2] = Solution stability in different buffers (acetate, citrate, lactate, succinate), HPLC (Example 5); assay type: physicochemical; conditions: all buffers tested
Description: In this study, the stability of liquid formulations of AMG 416 was evaluated in four different buffers over 9 days. Buffered saline solutions were prepared at 25 mM concentration, pH 4.5, for four different anionic buffers in the sodium salt form: acetate, citrate, lactate and succinate. […] The solutions were diluted further with pH 4.5 buffer to 1.0 mg/mL and 0.25 mg/mL. Each of the resulting solutions was split to two glass HPLC vials, one stored at 2-8° C. and one at room temperature (about 25° C.). HPLC analysis was conducted at 0, 4 and 9 days for determination of potency and purity.

[3] = Stability in buffered solutions at pH 2.25, 2.5, 3.0 and 3.5, RP-HPLC purity and degradants (Example 6)
Description: In this study, the stability of a liquid formulation of AMG 416 under low pH conditions was investigated. Succinate-buffered saline (10 mM, pH 3.5) was prepared by dissolving 59 mg of succinic acid in 45 ml of lab processed (deionized) water and adjusting the pH to 3.5 using 1N HCl and 1N NaOH as needed, and q.s. to 50 ml. In the same way, a 10 mM, pH 3.5 sodium lactate (56 mg/50 mL) buffer solution was prepared.
NaCl (90 mg) was added to one portion and mannitol (500 mg) was added to the other. Each 10 mL portion was split again into two equal 5 mL portions and the pH was adjusted to 2.25 and 3.5, respectively, with 1N HCl and 1N NaOH. In the same way, four 5 mL solutions were prepared using lactate buffer. 1.0 mL of each of the (eight) resulting solutions was added to 3 serum sample vials. In addition, the remaining pH 2.25, succinate-buffered AMG 416 solution containing NaCl was adjusted to pH 2.5 and 0.5 mL aliquots were added to 3 serum sample vials and the remaining pH 3.5 succinate buffered solution with NaCl was adjusted to pH 3.0 and 0.5 mL aliquots were added to 3 serum sample vials.
At each time point (0, 2, 8, 12 and 24 weeks) all 30 samples were retrieved from storage, equilibrated to room temperature (about 25° C.), and a 100 μL aliquot was diluted to 0.5 mg/mL with water for RP-HPLC analysis. […]

## CC(=O)N[C@H](CSSC[C@H](N)C(=O)O)C(=O)N[C@H](C)C(=O)N[C@H](CCCNC(=N)N)C(=O)N[C@H](CCCNC(=N)N)C(=O)N[C@H](CCCNC(=N)N)C(=O)N[C@H](C)C(=O)N[C@H](CCCNC(=N)N)C(N)=O [AMG 416, N-acetyl-D-cysteinyl-D-alanyl-D-arginyl-D-arginyl-D-arginyl-D-alanyl-D-arginamide disulfide with L-cysteine]
[1]; Arg, pH 3.5, 2-8° C.
  Extent of degradation at 56 days: 0.0%
[1]; Arg, pH 3.5, 40° C.
  Extent of degradation at 56 days: 28%
[1]; Arg, pH 3.5, RT
  Extent of degradation at 56 days: 0.6%
[1]; Arg, pH 3.5, from 2-8° C. data
  Predicted extent of degradation After 2 Year Storage at Room Temperature: 2%
[1]; Arg, pH 3.5, from 40° C. data
  Predicted extent of degradation After 2 Year Storage at Room Temperature: 90%
[1]; Arg, pH 3.5, from RT data
  Predicted extent of degradation After 2 Year Storage at Room Temperature: 7%
[1]; Arg, pH 4.5, 2-8° C.
  Extent of degradation at 56 days: 0.5%
[1]; Arg, pH 4.5, 40° C.
  Extent of degradation at 56 days: 67%
[1]; Arg, pH 4.5, RT
  Extent of degradation at 56 days: 29%
[1]; Arg, pH 4.5, from 2-8° C. data
  Predicted extent of degradation After 2 Year Storage at Room Temperature: 27%
[1]; Arg, pH 4.5, from 40° C. data
  Predicted extent of degradation After 2 Year Storage at Room Temperature: >100%
[1]; Arg, pH 4.5, from RT data
  Predicted extent of degradation After 2 Year Storage at Room Temperature: >100%
[1]; DI Water, pH 3.5, 2-8° C.
  Extent of degradation at 56 days: 0.0%
[1]; DI Water, pH 3.5, 40° C.
  Extent of degradation at 56 days: 8.2%
[1]; DI Water, pH 3.5, RT
  Extent of degradation at 56 days: 1.0%
[1]; DI Water, pH 3.5, from 2-8° C. data
  Predicted extent of degradation After 2 Year Storage at Room Temperature: 1%
[1]; DI Water, pH 3.5, from 40° C. data
  Predicted extent of degradation After 2 Year Storage at Room Temperature: 27%
[1]; DI Water, pH 3.5, from RT data
  Predicted extent of degradation After 2 Year Storage at Room Temperature: 13%
[1]; DI Water, pH 4.5, 2-8° C.
  Extent of degradation at 56 days: 0.7%
[1]; DI Water, pH 4.5, 40° C.
  Extent of degradation at 56 days: 24%
[1]; DI Water, pH 4.5, RT
  Extent of degradation at 56 days: 3.6%
[1]; DI Water, pH 4.5, from 2-8° C. data
  Predicted extent of degradation After 2 Year Storage at Room Temperature: 35%
[1]; DI Water, pH 4.5, from 40° C. data
  Predicted extent of degradation After 2 Year Storage at Room Temperature: 77%
[1]; DI Water, pH 4.5, from RT data
  Predicted extent of degradation After 2 Year Storage at Room Temperature: 47%
[1]; Gly, pH 3.5, 2-8° C.
  Extent of degradation at 56 days: 0.0%
[1]; Gly, pH 3.5, 40° C.
  Extent of degradation at 56 days: 17%
[1]; Gly, pH 3.5, RT
  Extent of degradation at 56 days: 0.6%
[1]; Gly, pH 3.5, from 2-8° C. data
  Predicted extent of degradation After 2 Year Storage at Room Temperature: 3%
[1]; Gly, pH 3.5, from 40° C. data
  Predicted extent of degradation After 2 Year Storage at Room Temperature: 55%
[1]; Gly, pH 3.5, from RT data
  Predicted extent of degradation After 2 Year Storage at Room Temperature: 8%
[1]; Gly, pH 4.5, 2-8° C.
  Extent of degradation at 56 days: 0.6%
[1]; Gly, pH 4.5, 40° C.
  Extent of degradation at 56 days: 28%
[1]; Gly, pH 4.5, RT
  Extent of degradation at 56 days: 6.4%
[1]; Gly, pH 4.5, from 2-8° C. data
  Predicted extent of degradation After 2 Year Storage at Room Temperature: 31%
[1]; Gly, pH 4.5, from 40° C. data
  Predicted extent of degradation After 2 Year Storage at Room Temperature: 90%
[1]; Gly, pH 4.5, from RT data
  Predicted extent of degradation After 2 Year Storage at Room Temperature: 83%
[1]; Mannitol, pH 3.5, 2-8° C.
  Extent of degradation at 56 days: 0.0%
[1]; Mannitol, pH 3.5, 40° C.
  Extent of degradation at 56 days: 4.9%
[1]; Mannitol, pH 3.5, RT
  Extent of degradation at 56 days: 0.5%
[1]; Mannitol, pH 3.5, from 2-8° C. data
  Predicted extent of degradation After 2 Year Storage at Room Temperature: 0%
[1]; Mannitol, pH 3.5, from 40° C. data
  Predicted extent of degradation After 2 Year Storage at Room Temperature: 16%
[1]; Mannitol, pH 3.5, from RT data
  Predicted extent of degradation After 2 Year Storage at Room Temperature: 7%
[1]; Mannitol, pH 4.5, 2-8° C.
  Extent of degradation at 56 days: 0.5%
[1]; Mannitol, pH 4.5, 40° C.
  Extent of degradation at 56 days: 23%
[1]; Mannitol, pH 4.5, RT
  Extent of degradation at 56 days: 2.2%
[1]; Mannitol, pH 4.5, from 2-8° C. data
  Predicted extent of degradation After 2 Year Storage at Room Temperature: 28%
[1]; Mannitol, pH 4.5, from 40° C. data
  Predicted extent of degradation After 2 Year Storage at Room Temperature: 75%
[1]; Mannitol, pH 4.5, from RT data
  Predicted extent of degradation After 2 Year Storage at Room Temperature: 28%
[1]; Na2SO4, pH 3.5, 2-8° C.
  Extent of degradation at 56 days: 0.0%
[1]; Na2SO4, pH 3.5, 40° C.
  Extent of degradation at 56 days: 9.4%
[1]; Na2SO4, pH 3.5, RT
  Extent of degradation at 56 days: 0.4%
[1]; Na2SO4, pH 3.5, from 2-8° C. data
  Predicted extent of degradation After 2 Year Storage at Room Temperature: 2%
[1]; Na2SO4, pH 3.5, from 40° C. data
  Predicted extent of degradation After 2 Year Storage at Room Temperature: 31%
[1]; Na2SO4, pH 3.5, from RT data
  Predicted extent of degradation After 2 Year Storage at Room Temperature: 5%
[1]; Na2SO4, pH 4.5, 2-8° C.
  Extent of degradation at 56 days: 0.4%
[1]; Na2SO4, pH 4.5, 40° C.
  Extent of degradation at 56 days: 30%
[1]; Na2SO4, pH 4.5, RT
  Extent of degradation at 56 days: 51%
[1]; Na2SO4, pH 4.5, from 2-8° C. data
  Predicted extent of degradation After 2 Year Storage at Room Temperature: 22%
[1]; Na2SO4, pH 4.5, from 40° C. data
  Predicted extent of degradation After 2 Year Storage at Room Temperature: 98%
[1]; Na2SO4, pH 4.5, from RT data
  Predicted extent of degradation After 2 Year Storage at Room Temperature: >100%
[1]; NaCl, pH 3.5, 2-8° C.
  Extent of degradation at 56 days: 0.1%
[1]; NaCl, pH 3.5, 40° C.
  Extent of degradation at 56 days: 3.0%
[1]; NaCl, pH 3.5, RT
  Extent of degradation at 56 days: 0.3%
[1]; NaCl, pH 3.5, from 2-8° C. data
  Predicted extent of degradation After 2 Year Storage at Room Temperature: 4%
[1]; NaCl, pH 3.5, from 40° C. data
  Predicted extent of degradation After 2 Year Storage at Room Temperature: 10%
[1]; NaCl, pH 3.5, from RT data
  Predicted extent of degradation After 2 Year Storage at Room Temperature: 4%
[1]; NaCl, pH 4.5, 2-8° C.
  Extent of degradation at 56 days: 1.1%
[1]; NaCl, pH 4.5, 40° C.
  Extent of degradation at 56 days: 18%
[1]; NaCl, pH 4.5, RT
  Extent of degradation at 56 days: 1.8%
[1]; NaCl, pH 4.5, from 2-8° C. data
  Predicted extent of degradation After 2 Year Storage at Room Temperature: 56%
[1]; NaCl, pH 4.5, from 40° C. data
  Predicted extent of degradation After 2 Year Storage at Room Temperature: 58%
[1]; NaCl, pH 4.5, from RT data
  Predicted extent of degradation After 2 Year Storage at Room Temperature: 24%
[2]
  stability during the 9 day study: good stability
[3]; 5 mg/mL solutions, Example 6
  pH of maximal stability: 3.0±0.5
[3]; liquid formulations at pH 3.0
  predicted total degradation over 2 years under refrigerated conditions: 2-4%

— patent US11959486B2, “Stable liquid formulation of AMG 416 (etelcalcetide)” (AMGEN INC., priority 2013, dated 2024)
